# According to PMC1890308, “Anti-calmodulins and Tricyclic Adjuvants in Pain Therapy Block the TRPV1 Channel” (PLoS ONE, 2007):
# System: kainic acid receptors
# Assay: kainic acid-evoked responses of spinal dorsal horn neurons, microiontophoresis
# Format: in vivo
# Details: anesthetized rat, iontophoresis, mean±SD, n = 16
# Method: In another set of experiments, effects of calmidazolium were investigated on the responses of dorsal horn neurons evoked by NMDA and kainic acid agonists of different glutamate receptors, well characterized transducers of pain signals, more centrally. Neuronal firing responses to iontophoresed NMDA or kainic acid were typically fast in onset and short in duration (Fig. 8). Ejection currents for these excitatory agents were delivered alternately in every 2 min and were selected to produce a maximal peak height of 50–70 spikes/s which corresponded to 300–400 action potentials per stimulation epoch. Iontophoretic application of calmidazolium produced significant reduction in responses to both NMDA and kainic acid. Maximal inhibition of NMDA- or kainic acid -evoked responses were reached 15–20 min after calmidazolium application and remained so during the rest of the 2 hour long experiment. […]
# Extracellular single-neuron recordings were made in chloral hydrate-anesthetized ([…] initial dose, i.p., with supplemental doses as required) male Wistar rats weighing between 350–450 g. […] Rectal temperature as well as the temperature of the mineral oil were monitored with temperature probes and kept at 37°C by a warm water-heated blanket beneath the rat and an infrared heat lamp from above. […]
compound,measurement,value
Clc1ccc(C(c2ccc(Cl)cc2)n2cc[n+](CC(OCc3ccc(Cl)cc3Cl)c3ccc(Cl)cc3Cl)c2)cc1 (stereo not shown) [calmidazolium],"responses to kainic acid, % of pre-calmidazolium baseline control",47±20%
